pIC50, pKi: −log10 of the molar value.
Tests used:
[1] = molecular target: Cytochrome P450 2C9 (Homo sapiens, UniProt P11712); conditions: bti-tn-5b1-4; also: in other assays of this panel Not Active means under 50% inhibition at 10 µM
[2] = molecular target: T1, Glucocorticoid receptor (Homo sapiens, UniProt P04150); conditions: hela s3; also: in other assays of this panel Not Active means under 50% inhibition at 10 µM
T1 sequence (P04150 whole entry): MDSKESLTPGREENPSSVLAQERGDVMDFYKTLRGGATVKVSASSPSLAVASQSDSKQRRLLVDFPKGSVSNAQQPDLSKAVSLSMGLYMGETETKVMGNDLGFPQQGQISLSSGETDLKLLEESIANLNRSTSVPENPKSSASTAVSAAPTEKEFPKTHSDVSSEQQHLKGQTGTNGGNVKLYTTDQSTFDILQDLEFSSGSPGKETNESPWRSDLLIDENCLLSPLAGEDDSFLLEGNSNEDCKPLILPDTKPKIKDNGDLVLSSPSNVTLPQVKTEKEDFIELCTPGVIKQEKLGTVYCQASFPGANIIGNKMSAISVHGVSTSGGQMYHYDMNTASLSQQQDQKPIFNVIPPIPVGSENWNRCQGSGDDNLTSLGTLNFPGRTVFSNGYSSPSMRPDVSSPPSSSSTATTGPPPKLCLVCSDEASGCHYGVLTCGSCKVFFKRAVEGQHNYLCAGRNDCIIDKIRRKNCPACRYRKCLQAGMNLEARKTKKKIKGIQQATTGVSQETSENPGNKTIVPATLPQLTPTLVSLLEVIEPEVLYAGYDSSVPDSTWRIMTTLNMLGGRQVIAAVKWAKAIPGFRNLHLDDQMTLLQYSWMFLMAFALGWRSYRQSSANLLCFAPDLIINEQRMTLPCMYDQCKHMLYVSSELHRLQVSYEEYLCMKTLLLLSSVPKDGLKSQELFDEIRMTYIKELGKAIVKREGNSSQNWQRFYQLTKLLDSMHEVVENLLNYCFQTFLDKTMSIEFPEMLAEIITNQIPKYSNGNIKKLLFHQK

[3] = molecular target: Kappa-type opioid receptor (Homo sapiens, UniProt P41145); experiment: DRUGMATRIX: Opiate kappa (OP2, KOP) radioligand binding (ligand: [3H] Diprenorphine); format: cell membranes, HEK293, Membrane; conditions: hek293; Not Active = under 50% inhibition at 10 µM
[4] = molecular target: T2, Alpha-2A adrenergic receptor (Homo sapiens, UniProt P08913); format: cell membranes, Sf9, Membrane; conditions: for IC50: sf9; for pIC50: read-out: IC50; for pKi: read-out: Ki; as to all read-outs here: in other assays of this panel Not Active means under 50% inhibition at 10 µM
T2 sequence (P08913 whole entry): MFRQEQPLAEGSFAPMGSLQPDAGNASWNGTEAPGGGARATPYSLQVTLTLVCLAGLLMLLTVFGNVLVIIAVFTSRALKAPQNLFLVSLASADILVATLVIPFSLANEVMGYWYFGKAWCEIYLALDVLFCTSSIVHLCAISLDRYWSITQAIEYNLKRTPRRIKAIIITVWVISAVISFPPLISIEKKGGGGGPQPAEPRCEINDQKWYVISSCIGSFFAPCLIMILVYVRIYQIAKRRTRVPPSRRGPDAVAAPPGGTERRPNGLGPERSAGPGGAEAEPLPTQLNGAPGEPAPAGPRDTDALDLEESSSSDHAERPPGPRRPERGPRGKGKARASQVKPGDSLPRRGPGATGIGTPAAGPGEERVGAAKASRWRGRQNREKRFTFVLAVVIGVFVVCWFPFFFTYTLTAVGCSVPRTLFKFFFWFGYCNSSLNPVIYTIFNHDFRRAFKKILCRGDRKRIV

[5] = molecular target: Cytochrome P450 2D6 (Homo sapiens, UniProt P10635); conditions: bti-tn-5b1-4; also: in other assays of this panel Not Active means under 50% inhibition at 10 µM
[6] = molecular target: T3, Alpha-1B adrenergic receptor (Rattus norvegicus, UniProt P15823); experiment: DRUGMATRIX: Alpha-1B adrenergic receptor radioligand binding (ligand: prazosin); format: cell membranes, Wistar, Liver, Membrane; conditions: Not Active = under 50% inhibition at 10 µM
T3 sequence (P15823 whole entry): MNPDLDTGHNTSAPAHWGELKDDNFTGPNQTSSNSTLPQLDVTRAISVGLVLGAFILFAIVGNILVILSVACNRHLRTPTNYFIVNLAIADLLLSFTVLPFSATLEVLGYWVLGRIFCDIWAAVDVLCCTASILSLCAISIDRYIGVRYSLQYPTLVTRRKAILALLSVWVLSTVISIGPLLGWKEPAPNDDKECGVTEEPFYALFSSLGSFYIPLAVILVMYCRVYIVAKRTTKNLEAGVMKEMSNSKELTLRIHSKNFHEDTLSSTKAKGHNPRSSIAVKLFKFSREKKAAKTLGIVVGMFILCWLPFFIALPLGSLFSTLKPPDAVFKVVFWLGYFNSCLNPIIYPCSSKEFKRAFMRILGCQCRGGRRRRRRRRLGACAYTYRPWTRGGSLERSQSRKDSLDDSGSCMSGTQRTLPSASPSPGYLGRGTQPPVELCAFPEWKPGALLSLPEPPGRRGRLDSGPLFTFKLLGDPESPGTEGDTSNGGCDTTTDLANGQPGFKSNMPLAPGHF

[7] = molecular target: D(1A) dopamine receptor (Homo sapiens, UniProt P21728); experiment: DRUGMATRIX: Dopamine D1 radioligand binding (ligand: [3H] SCH-23390); format: cell membranes, CHO, Membrane; conditions: cho; Not Active = under 50% inhibition at 10 µM
D(1A) dopamine receptor, sequence (P21728 whole entry): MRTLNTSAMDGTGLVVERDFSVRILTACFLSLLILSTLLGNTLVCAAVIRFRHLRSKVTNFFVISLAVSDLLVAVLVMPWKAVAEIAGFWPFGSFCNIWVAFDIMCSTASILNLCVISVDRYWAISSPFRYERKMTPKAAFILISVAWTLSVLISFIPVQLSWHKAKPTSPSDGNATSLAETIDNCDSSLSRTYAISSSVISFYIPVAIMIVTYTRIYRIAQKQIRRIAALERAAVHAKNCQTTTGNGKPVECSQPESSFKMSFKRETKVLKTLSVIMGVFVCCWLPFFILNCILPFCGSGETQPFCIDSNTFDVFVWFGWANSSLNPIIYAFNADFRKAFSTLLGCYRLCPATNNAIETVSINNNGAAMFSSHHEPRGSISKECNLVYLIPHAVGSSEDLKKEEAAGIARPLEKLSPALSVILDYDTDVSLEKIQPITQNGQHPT

Cytochrome P450 2D6, sequence (P10635 whole entry): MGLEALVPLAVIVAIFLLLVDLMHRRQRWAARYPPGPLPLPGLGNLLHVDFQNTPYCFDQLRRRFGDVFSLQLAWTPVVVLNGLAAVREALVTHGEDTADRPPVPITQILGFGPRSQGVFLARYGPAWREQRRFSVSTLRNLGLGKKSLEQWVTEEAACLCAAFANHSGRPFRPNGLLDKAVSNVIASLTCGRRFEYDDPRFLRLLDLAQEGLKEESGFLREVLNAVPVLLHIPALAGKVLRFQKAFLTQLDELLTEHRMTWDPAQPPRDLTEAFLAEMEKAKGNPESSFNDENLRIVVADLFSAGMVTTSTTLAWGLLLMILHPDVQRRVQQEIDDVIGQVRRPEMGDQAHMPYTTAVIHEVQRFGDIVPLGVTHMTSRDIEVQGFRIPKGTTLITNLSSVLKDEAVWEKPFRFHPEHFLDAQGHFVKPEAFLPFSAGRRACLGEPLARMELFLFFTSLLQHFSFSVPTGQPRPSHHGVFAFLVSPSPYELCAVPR
Cytochrome P450 2C9, sequence (P11712 whole entry): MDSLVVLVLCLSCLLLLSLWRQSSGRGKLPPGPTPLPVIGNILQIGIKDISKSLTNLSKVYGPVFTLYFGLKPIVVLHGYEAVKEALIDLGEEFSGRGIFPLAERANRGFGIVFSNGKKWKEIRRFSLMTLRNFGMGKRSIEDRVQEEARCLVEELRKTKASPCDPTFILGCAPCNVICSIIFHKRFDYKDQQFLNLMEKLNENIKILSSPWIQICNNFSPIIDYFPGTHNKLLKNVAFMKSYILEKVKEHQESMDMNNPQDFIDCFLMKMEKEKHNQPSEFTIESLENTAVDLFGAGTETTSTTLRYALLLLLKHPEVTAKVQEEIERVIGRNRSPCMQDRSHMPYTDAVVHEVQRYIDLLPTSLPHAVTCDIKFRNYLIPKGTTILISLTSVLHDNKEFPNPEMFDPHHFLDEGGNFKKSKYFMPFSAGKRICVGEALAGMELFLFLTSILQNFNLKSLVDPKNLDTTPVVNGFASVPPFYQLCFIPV
Kappa-type opioid receptor, sequence (P41145 whole entry): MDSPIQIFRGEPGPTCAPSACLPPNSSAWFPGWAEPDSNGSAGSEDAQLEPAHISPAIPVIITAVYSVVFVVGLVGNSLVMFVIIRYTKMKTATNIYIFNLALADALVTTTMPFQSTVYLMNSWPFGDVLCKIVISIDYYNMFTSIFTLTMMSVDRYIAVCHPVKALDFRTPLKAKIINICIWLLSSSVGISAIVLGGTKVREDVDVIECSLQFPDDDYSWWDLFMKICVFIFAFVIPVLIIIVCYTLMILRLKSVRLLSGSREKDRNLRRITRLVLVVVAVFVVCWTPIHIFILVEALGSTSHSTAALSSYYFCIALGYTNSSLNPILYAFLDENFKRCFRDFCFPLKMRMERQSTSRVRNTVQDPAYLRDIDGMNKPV

SMILES | IC50 [1] | Ki [1] | IC50 [2] | IC50 [3] | IC50 [4] | IC50 [5] | Ki [5] | IC50 [6] | IC50 [7] | pIC50 [4] | pKi [4]
CC[C@@]1(O)C(=O)OCc2c1cc1n(c2=O)Cc2cc3c(CN(C)C)c(O)ccc3nc2-1 [TOPOTECAN] | Not Active | Not Active | Not Active | Not Active | Not Active | Not Active | Not Active | Not Active | Not Active |  | 
Cc1ccc(Cl)c(Nc2ccccc2C(=O)O)c1Cl [MECLOFENAMIC ACID] | Not Active | Not Active | Not Active | Not Active | Not Active | Not Active | Not Active | Not Active | Not Active |  | 
Cc1ccnc(NS(=O)(=O)c2ccc(N)cc2)n1 [SULFAMERAZINE] | Not Active | Not Active | Not Active | Not Active | Not Active | Not Active | Not Active | Not Active | Not Active |  | 
CCOc1cc(N)c(Cl)cc1C(=O)NCC1CN(Cc2ccc(F)cc2)CCO1 (stereo not drawn) [MOSAPRIDE] |  |  | Not Active | Not Active |  | Not Active | Not Active | Not Active | Not Active | 5.43 | 5.86
C[C@]12CCC(=O)C[C@@H]1CC[C@@H]1[C@@H]2CC[C@]2(C)[C@@H](O)CC[C@@H]12 [STANOLONE] | Not Active | Not Active | Not Active | Not Active | Not Active | Not Active | Not Active | Not Active | Not Active |  | 
O=C(O)c1cc(/N=N/c2ccc(S(=O)(=O)Nc3ccccn3)cc2)ccc1O [SULFASALAZINE] | Not Active | Not Active | Not Active | Not Active | Not Active | Not Active | Not Active | Not Active | Not Active |  | 
CC1=C(/C=C/C(C)=C/C=C/C(C)=C/C(=O)O)C(C)(C)CCC1 [TRETINOIN] | Not Active | Not Active | Not Active | Not Active | Not Active | Not Active | Not Active | Not Active | Not Active |  | 
CC[C@H](C)C(=O)O[C@H]1CCC=C2C=C[C@H](C)[C@H](CC[C@@H]3C[C@@H](O)CC(=O)O3)[C@H]21 [MEVASTATIN] | Not Active | Not Active | Not Active | Not Active | Not Active | Not Active | Not Active | Not Active | Not Active |  | 
CS(=O)(=O)c1ccc(C2=C(c3ccccc3)C(=O)OC2)cc1 [ROFECOXIB] | Not Active | Not Active | Not Active | Not Active | Not Active | Not Active | Not Active | Not Active | Not Active |  | 
CC1(C)[C@H](C(=O)O)N2C(=O)C[C@H]2S1(=O)=O [SULBACTAM] | Not Active | Not Active | Not Active | Not Active | Not Active | Not Active | Not Active | Not Active | Not Active |  | 
CC[C@H](C)[C@@H](CO[C@@H](Cc1ccccc1)C(=O)N[C@@H](CCS(C)(=O)=O)C(=O)OC(C)C)NC[C@@H](N)CS | Not Active | Not Active | Not Active | Not Active |  |  |  | Not Active | Not Active | 6.36 | 6.79
CN1C(=O)OC(C)(C)C1=O [TRIMETHADIONE] |  |  | Not Active | Not Active | Not Active | Not Active | Not Active | Not Active | Not Active |  | 
CCC(C)(C)C(=O)O[C@H]1C[C@@H](C)C=C2C=C[C@H](C)[C@H](CC[C@@H]3C[C@@H](O)CC(=O)O3)[C@H]21 [SIMVASTATIN] |  |  | Not Active | Not Active | Not Active |  |  | Not Active | Not Active |  | 
Cc1ccc(S(=O)(=O)NC(=O)NN2CCCCCC2)cc1 [TOLAZAMIDE] |  |  | Not Active | Not Active | Not Active |  |  | Not Active | Not Active |  | 
CC(C)(C)NC[C@H](O)COc1cccc2c1CCCC2=O [LEVOBUNOLOL] | Not Active | Not Active | Not Active | Not Active | Not Active | Not Active | Not Active | Not Active | Not Active |  | 
CCN1CCCC1CNC(=O)c1cc(S(N)(=O)=O)ccc1OC (stereo not drawn) [SULPIRIDE] | Not Active | Not Active | Not Active | Not Active |  | Not Active | Not Active | Not Active | Not Active | 5.69 | 6.12
Cc1cccc(C)c1NC(=O)C(C)N (stereo not drawn) [TOCAINIDE] | Not Active | Not Active | Not Active | Not Active | Not Active | Not Active | Not Active | Not Active | Not Active |  | 
CCOC(=O)C1=C(C)NC(C)=C(C(=O)OCC)C1c1ccccc1/C=C/C(=O)OC(C)(C)C [LACIDIPINE] |  |  | Not Active | Not Active | Not Active | Not Active | Not Active | Not Active | Not Active |  | 
C=CCc1ccc2c(c1)OCO2 [SAFROLE] | Not Active | Not Active | Not Active | Not Active | Not Active | Not Active | Not Active | Not Active | Not Active |  | 
O=C(OC[C@H]1O[C@@H](OC(=O)c2cc(O)c(O)c(OC(=O)c3cc(O)c(O)c(O)c3)c2)[C@H](OC(=O)c2cc(O)c(O)c(OC(=O)c3cc(O)c(O)c(O)c3)c2)[C@@H](OC(=O)c2cc(O)c(O)c(OC(=O)c3cc(O)c(O)c(O)c3)c2)[C@@H]1OC(=O)c1cc(O)c(O)c(OC(=O)c2cc(O)c(O)c(O)c2)c1)c1cc(O)c(O)c(OC(=O)c2cc(O)c(O)c(O)c2)c1 [TANNIC ACID] |  |  | Not Active | Not Active | Not Active | Not Active | Not Active | Not Active | Not Active |  | 
CO[C@@]12[C@H](COC(N)=O)C3=C(C(=O)C(C)=C(N)C3=O)N1C[C@@H]1N[C@@H]12 [MITOMYCIN] | Not Active | Not Active | Not Active | Not Active | Not Active | Not Active | Not Active | Not Active | Not Active |  | 
COC(=O)Nc1nc2ccc(C(=O)c3ccccc3)cc2[nH]1 [MEBENDAZOLE] | Not Active | Not Active | Not Active | Not Active | Not Active | Not Active | Not Active | Not Active | Not Active |  | 

From ChEMBL document CHEMBL1909046, “DrugMatrix in vitro pharmacology data”
